Experimental data: patent US9181239B2, “Pyridopyrimidinone inhibitors of kinases” (AbbVie Inc., priority 2011, dated 2015)

These compounds were tested against T1, Wee1 kinase (Homo sapiens, UniProt P30291) (assay: Wee1 time-resolved fluorescence equilibrium binding assay (probe displacement)). Settings: GST-tagged-Wee1 kinase 2 nM, fluorescent probe 300 nM, 1 hour incubation; read-out: Wee-1 binding (Ki nM).
T1 construct: purchased Carnabio 05-177
Experimental: Wee1 kinase was assayed using a time-resolved fluorescence equilibrium binding assay monitoring displacement of a rapidly reversible Oregon Green-labeled ATP-competitive kinase probe (N-(2-(2-(2-(4-(4-(5-chloro-4-(2-(1-hydroxycyclobutyl)thiazol-5-yl)-1H-pyrrolo[2,3-b]pyridin-2-yl)phenyl)piperazin-1-yl)ethoxy)ethoxy)ethyl)-2′,7′-difluoro-3′,6′-dihydroxy-3-oxo-3H-spiro[isobenzofuran-1,9′-xanthene]-5-carboxamide) by competitive Wee1 inhibitors.

T1 sequence (P30291 whole entry): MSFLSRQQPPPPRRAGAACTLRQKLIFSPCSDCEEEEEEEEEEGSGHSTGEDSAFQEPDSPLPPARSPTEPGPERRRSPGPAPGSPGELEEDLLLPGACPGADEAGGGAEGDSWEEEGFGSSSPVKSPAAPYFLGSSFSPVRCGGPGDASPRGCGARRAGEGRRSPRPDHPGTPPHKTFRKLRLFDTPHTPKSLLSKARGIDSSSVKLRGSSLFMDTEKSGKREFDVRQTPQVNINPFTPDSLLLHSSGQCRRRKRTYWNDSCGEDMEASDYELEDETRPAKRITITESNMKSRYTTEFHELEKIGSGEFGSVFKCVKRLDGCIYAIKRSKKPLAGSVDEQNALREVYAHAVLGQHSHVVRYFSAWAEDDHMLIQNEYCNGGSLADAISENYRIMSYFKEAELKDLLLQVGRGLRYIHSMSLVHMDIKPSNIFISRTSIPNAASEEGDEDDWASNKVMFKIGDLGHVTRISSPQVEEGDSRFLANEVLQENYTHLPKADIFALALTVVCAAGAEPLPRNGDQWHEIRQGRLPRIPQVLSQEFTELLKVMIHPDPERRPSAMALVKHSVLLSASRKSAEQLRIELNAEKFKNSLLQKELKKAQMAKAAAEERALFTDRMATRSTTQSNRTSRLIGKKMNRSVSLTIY

| Ki | SMILES |
| --- | --- |
| 9.5 nM | CN1CCN(c2ccc(Nc3ncc4c(=O)c(-c5ccccc5Cl)c[nH]c4n3)cc2)CC1 [Example 1, 6-(2-chlorophenyl)-2-{[4-(4-methylpiperazin-1-yl)phenyl]amino}pyrido[2,3-d]pyrimidin-5(8H)-one] |
| 2.4 nM | CN1CCN(c2ccc(Nc3ncc4c(=O)c(-c5ccccc5Cl)cn(-c5ccccc5)c4n3)cc2)CC1 [Example 2, 6-(2-chlorophenyl)-2-{[4-(4-methylpiperazin-1-yl)phenyl]amino}-8-phenylpyrido[2,3-d]pyrimidin-5(8H)-one] |
| 37 nM | CN1CCN(c2ccc(Nc3ncc4c(=O)c(-c5ccccc5Cl)c(-c5ccccc5)[nH]c4n3)cc2)CC1 [Example 3, 6-(2-chlorophenyl)-2-{[4-(4-methylpiperazin-1-yl)phenyl]amino}-7-phenylpyrido[2,3-d]pyrimidin-5(8H)-one] |
| 0.1 nM | CN1CCN(c2ccc(Nc3ncc4c(=O)c(-c5c(Cl)cccc5Cl)cn(-c5ccccc5)c4n3)cc2)CC1 [Example 4, 6-(2,6-dichlorophenyl)-2-{[4-(4-methylpiperazin-1-yl)phenyl]amino}-8-phenylpyrido[2,3-d]pyrimidin-5(8H)-one] |
| 3.7 nM | CN1CCN(c2ccc(Nc3ncc4c(=O)c(-c5ccccc5Cl)cn(C)c4n3)cc2)CC1 [Example 5, 6-(2-chlorophenyl)-8-methyl-2-{[4-(4-methylpiperazin-1-yl)phenyl]amino}pyrido[2,3-d]pyrimidin-5(8H)-one] |
| 5.7 nM | CN1CCN(c2ccc(Nc3ncc4c(=O)c(-c5c(Cl)cccc5Cl)c5n(c4n3)CCC5)cc2)CC1 [Example 6, 6-(2,6-dichlorophenyl)-2-{[4-(4-methylpiperazin-1-yl)phenyl]amino}-8,9-dihydropyrimido[4,5-e]indolizin-5(7H)-one] |
| 0.6 nM | CN1CCN(c2ccc(Nc3ncc4c(=O)c(-c5c(Cl)cccc5Cl)cn(-c5ccncc5)c4n3)cc2)CC1 [Example 7, 6-(2,6-dichlorophenyl)-2-{[4-(4-methylpiperazin-1-yl)phenyl]amino}-8-(pyridin-4-yl)pyrido[2,3-d]pyrimidin-5(8H)-one] |
| 0.3 nM | CN1CCN(c2ccc(Nc3ncc4c(=O)c(-c5c(Cl)cccc5Cl)cn(C)c4n3)cc2)CC1 [Example 8, 6-(2,6-dichlorophenyl)-8-methyl-2-{[4-(4-methylpiperazin-1-yl)phenyl]amino}pyrido[2,3-d]pyrimidin-5(8H)-one] |
| < 1 nM | CN1CCN(c2ccc(Nc3ncc4c(=O)c(-c5c(Cl)cccc5Cl)cn(-c5ccc(F)cc5)c4n3)cc2)CC1 [Example 9, 6-(2,6-dichlorophenyl)-8-(4-fluorophenyl)-2-{[4-(4-methylpiperazin-1-yl)phenyl]amino}pyrido[2,3-d]pyrimidin-5(8H)-one] |
| < 1 nM | CN1CCN(c2ccc(Nc3ncc4c(=O)c(-c5c(Cl)cccc5Cl)cn(C5CC5)c4n3)cc2)CC1 [Example 10, 8-cyclopropyl-6-(2,6-dichlorophenyl)-2-{[4-(4-methylpiperazin-1-yl)phenyl]amino}pyrido[2,3-d]pyrimidin-5(8H)-one] |
| 3 nM | CN1CCN(c2ccc(Nc3ncc4c(=O)c(-c5c(Cl)cccc5Cl)cn(CC(F)(F)F)c4n3)cc2)CC1 [Example 11, 6-(2,6-dichlorophenyl)-2-{[4-(4-methylpiperazin-1-yl)phenyl]amino}-8-(2,2,2-trifluoroethyl)pyrido[2,3-d]pyrimidin-5(8H)-one] |
| 14 nM | CN1CCN(c2ccc(Nc3ncc4c(=O)c(-c5c(Cl)cccc5Cl)cn(Cc5ccncc5)c4n3)cc2)CC1 [Example 12, 6-(2,6-dichlorophenyl)-2-{[4-(4-methylpiperazin-1-yl)phenyl]amino}-8-(pyridin-4-ylmethyl)pyrido[2,3-d]pyrimidin-5(8H)-one] |
| 24 nM | CN(C)CCn1cc(-c2c(Cl)cccc2Cl)c(=O)c2cnc(Nc3ccc(N4CCN(C)CC4)cc3)nc21 [Example 13, 6-(2,6-dichlorophenyl)-8-[2-(dimethylamino)ethyl]-2-{[4-(4-methylpiperazin-1-yl)phenyl]amino}pyrido[2,3-d]pyrimidin-5(8H)-one] |
| 0.3 nM | CN1Cc2cc(Nc3ncc4c(=O)c(-c5c(Cl)cccc5Cl)cn(C)c4n3)ccc2C2(CC2)C1 [Example 14, 6-(2,6-dichlorophenyl)-8-methyl-2-[(2′-methyl-2′,3′-dihydro-1′H-spiro[cyclopropane-1,4′-isoquinolin]-7′-yl)amino]pyrido[2,3-d]pyrimidin-5(8H)-one] |
| 0.6 nM | CN1CCN(c2ccc(Nc3ncc4c(=O)c(-c5c(Cl)cccc5Cl)cn(C5CCC5)c4n3)cc2)CC1 [Example 15, 8-cyclobutyl-6-(2,6-dichlorophenyl)-2-{[4-(4-methylpiperazin-1-yl)phenyl]amino}pyrido[2,3-d]pyrimidin-5(8H)-one] |
| 20 nM | CN1CCN(c2ccc(Nc3ncc4c(=O)c(-c5c(Cl)cccc5Cl)cn(CC(C)(C)O)c4n3)cc2)CC1 [Example 16, 6-(2,6-dichlorophenyl)-8-(2-hydroxy-2-methylpropyl)-2-{[4-(4-methylpiperazin-1-yl)phenyl]amino}pyrido[2,3-d]pyrimidin-5(8H)-one] |
| 0.2 nM | CN1Cc2cc(Nc3ncc4c(=O)c(-c5c(Cl)cccc5Cl)cn(C5CC5)c4n3)ccc2C2(CC2)C1 [Example 17, 8-cyclopropyl-6-(2,6-dichlorophenyl)-2-[(2′-methyl-2′,3′-dihydro-1′H-spiro[cyclopropane-1,4′-isoquinolin]-7′-yl)amino]pyrido[2,3-d]pyrimidin-5(8H)-one] |
| 0.3 nM | CN1CCN(c2ccc(Nc3ncc4c(=O)c(-c5c(Cl)cccc5Cl)c[nH]c4n3)cc2)CC1 [Example 18, 6-(2,6-dichlorophenyl)-2-{[4-(4-methylpiperazin-1-yl)phenyl]amino}pyrido[2,3-d]pyrimidin-5(8H)-one] |
| 0.3 nM | Cc1cc(Nc2ncc3c(=O)c(-c4c(Cl)cccc4Cl)cn(C)c3n2)ccc1N1CCCN(C)CC1 [Example 19, 6-(2,6-dichlorophenyl)-8-methyl-2-{[3-methyl-4-(4-methyl-1,4-diazepan-1-yl)phenyl]amino}pyrido[2,3-d]pyrimidin-5(8H)-one] |
| 0.3 nM | CN1Cc2cc(Nc3ncc4c(=O)c(-c5c(Cl)cccc5Cl)cn(C)c4n3)ccc2C(C)(C)C1 [Example 20, 6-(2,6-dichlorophenyl)-8-methyl-2-[(2,4,4-trimethyl-1,2,3,4-tetrahydroisoquinolin-7-yl)amino]pyrido[2,3-d]pyrimidin-5(8H)-one] |
| 0.3 nM | Cn1cc(-c2c(Cl)cccc2Cl)c(=O)c2cnc(Nc3ccc4c(c3)CNCC43CC3)nc21 [Example 21, 6-(2,6-dichlorophenyl)-2-(2′,3′-dihydro-1′H-spiro[cyclopropane-1,4′-isoquinolin]-7′-ylamino)-8-methylpyrido[2,3-d]pyrimidin-5(8H)-one] |
| 0.6 nM | CN(C)C1Cc2ccc(Nc3ncc4c(=O)c(-c5c(Cl)cccc5Cl)cn(C)c4n3)cc2C1 (stereo not drawn) [Example 22, 6-(2,6-dichlorophenyl)-2-{[2-(dimethylamino)-2,3-dihydro-1H-inden-5-yl]amino}-8-methylpyrido[2,3-d]pyrimidin-5(8H)-one] |
| 0.8 nM | CN1Cc2cc(Nc3ncc4c(=O)c(-c5c(Cl)cccc5Cl)cn(C5CC5)c4n3)ccc2C(C)(C)C1 [Example 23, 8-cyclopropyl-6-(2,6-dichlorophenyl)-2-[(2,4,4-trimethyl-1,2,3,4-tetrahydroisoquinolin-7-yl)amino]pyrido[2,3-d]pyrimidin-5(8H)-one] |
| 0.8 nM | O=c1c(-c2c(Cl)cccc2Cl)cn(C2CC2)c2nc(Nc3ccc4c(c3)CNCC43CC3)ncc12 [Example 24, 8-cyclopropyl-6-(2,6-dichlorophenyl)-2-(2′,3′-dihydro-1′H-spiro[cyclopropane-1,4′-isoquinolin]-7′-ylamino)pyrido[2,3-d]pyrimidin-5(8H)-one] |
| 1.2 nM | CN(C)C1Cc2ccc(Nc3ncc4c(=O)c(-c5c(Cl)cccc5Cl)cn(C5CC5)c4n3)cc2C1 (stereo not drawn) [Example 25, 8-cyclopropyl-6-(2,6-dichlorophenyl)-2-{[2-(dimethylamino)-2,3-dihydro-1H-inden-5-yl]amino}pyrido[2,3-d]pyrimidin-5(8H)-one] |
| 1.2 nM | CC(C)n1cc(-c2c(Cl)cccc2Cl)c(=O)c2cnc(Nc3ccc(N4CCN(C)CC4)cc3)nc21 [Example 26, 6-(2,6-dichlorophenyl)-2-{[4-(4-methylpiperazin-1-yl)phenyl]amino}-8-(propan-2-yl)pyrido[2,3-d]pyrimidin-5(8H)-one] |
| 1.3 nM | CN1CCN(c2ccc(Nc3ncc4c(=O)c(-c5c(Cl)cccc5Cl)cn(C5COC5)c4n3)cc2)CC1 [Example 27, 6-(2,6-dichlorophenyl)-2-{[4-(4-methylpiperazin-1-yl)phenyl]amino}-8-(oxetan-3-yl)pyrido[2,3-d]pyrimidin-5(8H)-one] |
| 19 nM | CN1CCN(c2ccc(Nc3ncc4c(=O)c(-c5c(Cl)cccc5Cl)cn(C(C)(C)C)c4n3)cc2)CC1 [Example 28, 8-tert-butyl-6-(2,6-dichlorophenyl)-2-{[4-(4-methylpiperazin-1-yl)phenyl]amino}pyrido[2,3-d]pyrimidin-5(8H)-one] |
| 6.4 nM | COc1ccc(Cn2cc(-c3c(Cl)cccc3Cl)c(=O)c3cnc(Nc4ccc5c(c4)CN(C)CC54CC4)nc32)cc1 [Example 29, 6-(2,6-dichlorophenyl)-8-(4-methoxybenzyl)-2-[(2′-methyl-2′,3′-dihydro-1′H-spiro[cyclopropane-1,4′-isoquinolin]-7′-yl)amino]pyrido[2,3-d]pyrimidin-5(8H)-one] |
| 0.2 nM | CN1Cc2cc(Nc3ncc4c(=O)c(-c5c(Cl)cccc5Cl)c[nH]c4n3)ccc2C2(CC2)C1 [Example 30, 6-(2,6-dichlorophenyl)-2-[(2′-methyl-2′,3′-dihydro-1′H-spiro[cyclopropane-1,4′-isoquinolin]-7′-yl)amino]pyrido[2,3-d]pyrimidin-5(8H)-one] |
